Data set [1] can be described thus: Body weight of rats during four-week tyrosine isomer supplementation. The format is in vivo, Sprague-Dawley rats. The conditions noted are these: four weeks, 1.76 mg/die, vs vehicle. On the procedure:
In further tyrosine isomer incorporation studies when effects of chronic oral p-Tyr and o-Tyr supplementation of rats on the o-Tyr level and insulin-induced relaxation of isolated arterial segments were studied, 18 Male Sprague-Dawley rats (5-6 week-old) were used. Rats were orally supplied with either 1.76 mg/die of p-Tyr or o-Tyr or vehicle during six days per week for four weeks. […] At the end of four-week treatment, HPLC and vasomotor studies were performed. In another group of rats, p-Tyr/o-Tyr supplementation was discontinued for four weeks (“washout” period), after which they were sacrificed for HPLC and vasomotor studies.

In a further data set the test system is Akt (protein kinase B). Description: Insulin-induced phosphorylation of Akt in 3T3-L1 adipocytes (Western blot). Format: cell-based, mouse. As to the method: Primary cultures of mouse embryo fibroblasts (3T3-L1) were purchased from ATCC (Manassas, US). Early passages of 3T3-L1 fibroblasts were cultured in Dulbecco's modified Eagle medium ((DMEM, Invitrogen, CAT number: 41966-029; Sigma Aldrich CAT number: D6046) supplemented with 10% Fetal Bovine Serum (Gibco, CAT number: 16170-078), 100 U/ml penicillin and 0.1 mg/ml streptomycin (Gibco, CAT number: 15070-063) and 398 nM p-, m-, or o-Tyr. DMEM contained 25 or 5 mM glucose (depending on the experiment), L-glutamine, and pyruvate. Cells were grown in a humidified incubator at 37° C. and 5% CO2. Differentiation medium consisted of DMEM supplemented with 10% Fetal Bovine Serum (FBS, Gibco, Csertex, Budapest, Hungary, CAT number: 10106-169) (FBS), to which a cocktail was added containing […] isobuthylmethylxanthine (Sigma Aldrich, CAT number: I 5879), 0.17 nM insulin (Sigma Aldrich, CAT number: I 9278) and 250 nM dexamethasone (Sigma Aldrich, CAT number: 861871). From Day 4 onward, cells were maintained in DMEM/10% FBS containing […] insulin with a media change every other day until experimental treatments were initiated. For all treatments, cells were incubated overnight in serum-deprived medium after 90% of the cell population reached the adipocyte phenotype.
Following the treatment cells were washed twice with Saline (4° C.) to remove any trace of the medium, then exposed to 80 μL lysis buffer/plate, containing 1.15% Triton X, 1M Trisbase, pH 7.4, 0.5 M EDTA, pH 8, 0.2 M EGTA, pH 7, 0.1 M dithiothreitol (DTT), 5 mg/ml phenylmethylsulfonyl fluoride (PMSF), 0.1 M Na3VO4, 5 mg/ml leupeptin, 5 mg/ml aprotinin, Phoshatase Inhibitor Coctail 1 and 2 (Sigma Aldrich, CAT number: P2850 and P5726). Adypocytes were scraped off mechanically and then frozen at −70° C.
The samples of EC lysates were sonicated (2 min) and centrifuged (10 min, 13,000 rpm, at 4° C.). Protein content of samples was determined by the Bradford method using bovine serum albumin as a standard Bio-Rad Benchmark Plus. Samples were solubilized in a buffer of 100 mM Tris-HCl (pH 6.8), 4.0% sodium dodecyl sulphate (SDS), 20% glycerol, 200 mM DTT, and 0.2% bromophenol blue. […]
Membranes were incubated overnight with the immunoglobulin G (IgG) monoclonal antibodies diluted to 1:1000 in TBS-T (0.1%), containing 5% bovine serum (BS). […] Blots were detected using enhanced chemiluminescence (ECL; Pierce Biotech, Bio-Rad, Budapest, Hungary). Computerized densitometry (integrated optical density) of the specific bands was analyzed with Scion Image for Windows Software. […]

The values that follow come from patent US20140128472A1, “TREATMENT AND PREVENTION OF DISEASES RELATED TO OXIDATIVE STRESS” (UNIVERSITY OF PÉCS, priority 2011, published 2014).

Entries after “also recorded” stand apart in the source; their conditions may differ.

As for `N[C@@H](Cc1ccccc1O)C(=O)O` [o-Tyr, Ortho-L-tyrosine], the Body weight result in data set [1] was “no difference between the groups”. The “Insulin-induced Akt phosphorylation” value in the data set with Akt (protein kinase B) (cells grown on m-Tyr or o-Tyr, insulin 200 and 400 nmol/l) is recorded as “inhibited the insulin-induced Akt-phosphorylation; also recorded: could not be significantly enhanced by insulin”.

For `N[C@@H](Cc1ccc(O)cc1)C(=O)O` [p-Tyr, Para-L-tyrosine], the Body weight result in data set [1] is reported as “no difference between the groups”. In addition, the “Insulin-induced Akt phosphorylation” value with Akt (protein kinase B) (cells grown on high glucose media with p-Tyr only) is on record as “significantly lower Akt-phosphorylation”. For the same compound, in the data set on Akt (protein kinase B) (cells grown on p-Tyr and low glucose, increasing doses of insulin), the “Increase in Akt (protein kinase B) phosphorylation by insulin compared to controls” value stood at 3 fold.
